Data reported in patent publication US9034876B2, “Treatment of chronic inflammation with a 1,2,4-triazolo [1,5a] pyridine derivative” (Cephalon, Inc., priority 2010, dated 2015).

Legend:
[1] = target: T1, human JAK1 (Homo sapiens, UniProt P23458); assay: JAK1 kinase enzyme assay, TRF detection; type: biochemical; details: relative to JAK2
T1 construct: host or cells: baculovirus expression
Protocol: (§1) The kinase activity of baculovirus-expressed human JAK kinases (JAK1, JAK2, JAK3 or TYK2) was measured using the time-resolved fluorescence (TRF) detection system as described elsewhere [17]. Each 96-well Costar high binding plate (Corning, Corning, N.Y.) was coated with 100 μl/well of 10 μg/ml neutravidin (Pierce Biotechnology, Rockford, Ill.) in TBS at 37° C. for 2 h, followed by 100 μl/well of 1 μg/ml 15-mer peptide substrate (biotinyl-amino-hexanoyl-[sequence]-amide, Infinity Biotech Research and Resource, Aston, Pa.) at 37° C. for 1 h. The kinase assay mixture (total volume=100 μl/well) consisting of 20 mM HEPES (pH 7.2), ATP (Km level for each kinase), 1 mM MnCl2, 0.1% BSA, and test Compound (diluted in DMSO; 2.5% DMSO final in assay) was added to the assay plate. The concentrations of ATP used were as follows: 0.2 μM ATP for JAK1, JAK2 and TYK2; 0.1 μM ATP for JAK3. Enzyme was added and the reaction was allowed to proceed for 20 min at RT. […] Plates were agitated for 10 min and the fluorescence of the resulting solution measured using the PerkinElmer EnVision® 2102 or 2104 multi-label plate reader. IC50 values were determined using the 4-parameter logistic model in XLFit® 4 (IDBS, Ltd., Guildford, UK).

[2] = target: human TYK2 (Homo sapiens, UniProt P29597); assay: TYK2 kinase enzyme assay, TRF detection; type: biochemical; details: relative to JAK2
Chain of human TYK2 (P29597 whole entry): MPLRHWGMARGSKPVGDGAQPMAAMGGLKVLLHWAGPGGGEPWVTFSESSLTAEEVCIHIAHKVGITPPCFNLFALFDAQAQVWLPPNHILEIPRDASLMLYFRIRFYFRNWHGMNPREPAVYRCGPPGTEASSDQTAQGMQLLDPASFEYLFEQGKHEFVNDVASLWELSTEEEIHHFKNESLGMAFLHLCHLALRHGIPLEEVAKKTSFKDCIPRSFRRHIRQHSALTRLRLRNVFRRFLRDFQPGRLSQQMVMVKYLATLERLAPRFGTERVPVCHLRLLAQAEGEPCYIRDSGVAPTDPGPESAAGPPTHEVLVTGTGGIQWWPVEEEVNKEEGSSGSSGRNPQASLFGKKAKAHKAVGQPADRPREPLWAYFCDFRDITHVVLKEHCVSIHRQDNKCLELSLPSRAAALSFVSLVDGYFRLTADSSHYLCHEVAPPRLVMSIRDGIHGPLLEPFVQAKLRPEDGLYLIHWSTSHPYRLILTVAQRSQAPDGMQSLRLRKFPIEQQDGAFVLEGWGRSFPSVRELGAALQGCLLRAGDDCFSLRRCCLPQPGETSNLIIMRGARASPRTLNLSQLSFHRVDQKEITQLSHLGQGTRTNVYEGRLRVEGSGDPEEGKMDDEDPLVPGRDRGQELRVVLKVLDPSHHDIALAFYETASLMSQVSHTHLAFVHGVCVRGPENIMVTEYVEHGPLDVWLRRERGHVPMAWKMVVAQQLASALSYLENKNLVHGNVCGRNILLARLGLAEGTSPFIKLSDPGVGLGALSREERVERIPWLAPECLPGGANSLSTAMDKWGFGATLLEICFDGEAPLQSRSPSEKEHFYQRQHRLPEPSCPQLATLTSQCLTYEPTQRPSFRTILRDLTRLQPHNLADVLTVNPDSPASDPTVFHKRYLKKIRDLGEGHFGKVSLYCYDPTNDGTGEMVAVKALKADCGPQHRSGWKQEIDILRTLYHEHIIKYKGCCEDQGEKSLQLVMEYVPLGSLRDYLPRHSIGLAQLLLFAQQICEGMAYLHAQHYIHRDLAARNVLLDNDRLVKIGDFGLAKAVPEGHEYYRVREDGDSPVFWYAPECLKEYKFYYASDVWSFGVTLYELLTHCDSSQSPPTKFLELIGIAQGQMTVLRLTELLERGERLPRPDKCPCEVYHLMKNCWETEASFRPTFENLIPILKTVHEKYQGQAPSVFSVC
Protocol: as §1

[3] = target: EGFR (Homo sapiens, UniProt P00533); assay: Kinase profiling panel, EGFR; type: binding; details: 1 μM
Chain of EGFR (P00533 25-1210, species assumed): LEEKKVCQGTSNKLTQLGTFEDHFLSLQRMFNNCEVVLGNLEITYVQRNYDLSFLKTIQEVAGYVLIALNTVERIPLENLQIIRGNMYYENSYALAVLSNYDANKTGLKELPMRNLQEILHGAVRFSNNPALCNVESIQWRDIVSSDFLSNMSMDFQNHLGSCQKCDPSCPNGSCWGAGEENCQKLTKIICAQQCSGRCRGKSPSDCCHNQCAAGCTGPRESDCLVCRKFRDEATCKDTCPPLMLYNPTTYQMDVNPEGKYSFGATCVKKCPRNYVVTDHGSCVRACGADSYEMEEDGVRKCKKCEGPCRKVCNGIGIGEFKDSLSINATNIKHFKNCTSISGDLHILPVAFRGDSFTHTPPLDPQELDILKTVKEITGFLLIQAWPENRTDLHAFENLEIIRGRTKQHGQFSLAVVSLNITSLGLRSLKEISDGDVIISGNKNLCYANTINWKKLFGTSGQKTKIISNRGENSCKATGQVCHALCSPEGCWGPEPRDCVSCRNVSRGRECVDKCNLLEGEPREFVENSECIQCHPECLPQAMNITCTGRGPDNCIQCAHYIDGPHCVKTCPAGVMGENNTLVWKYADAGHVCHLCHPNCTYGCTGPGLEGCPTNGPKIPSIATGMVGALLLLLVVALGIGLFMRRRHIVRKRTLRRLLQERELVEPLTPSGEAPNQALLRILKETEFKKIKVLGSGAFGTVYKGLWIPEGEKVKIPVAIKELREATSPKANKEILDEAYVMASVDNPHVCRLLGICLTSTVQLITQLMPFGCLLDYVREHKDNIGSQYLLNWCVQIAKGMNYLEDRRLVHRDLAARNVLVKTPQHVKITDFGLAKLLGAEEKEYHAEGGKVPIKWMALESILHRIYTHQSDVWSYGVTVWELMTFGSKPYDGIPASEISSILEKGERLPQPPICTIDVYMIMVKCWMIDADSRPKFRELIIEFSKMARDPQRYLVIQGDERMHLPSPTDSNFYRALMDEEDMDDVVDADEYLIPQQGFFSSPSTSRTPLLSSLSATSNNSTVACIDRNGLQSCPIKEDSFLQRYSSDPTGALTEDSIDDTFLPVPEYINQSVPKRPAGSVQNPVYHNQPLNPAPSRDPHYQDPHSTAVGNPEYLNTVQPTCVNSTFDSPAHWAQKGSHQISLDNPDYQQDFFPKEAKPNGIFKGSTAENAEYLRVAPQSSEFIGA
Protocol: (§2) The ability of Compound A to inhibit other members of the kinome was also assessed using binding assays for a panel of 402 kinases [25].

[4] = target: Src kinase (Homo sapiens, UniProt P12931); assay: Kinase profiling panel, Src; type: binding; details: 1 μM
Chain of Src kinase (P12931 whole entry): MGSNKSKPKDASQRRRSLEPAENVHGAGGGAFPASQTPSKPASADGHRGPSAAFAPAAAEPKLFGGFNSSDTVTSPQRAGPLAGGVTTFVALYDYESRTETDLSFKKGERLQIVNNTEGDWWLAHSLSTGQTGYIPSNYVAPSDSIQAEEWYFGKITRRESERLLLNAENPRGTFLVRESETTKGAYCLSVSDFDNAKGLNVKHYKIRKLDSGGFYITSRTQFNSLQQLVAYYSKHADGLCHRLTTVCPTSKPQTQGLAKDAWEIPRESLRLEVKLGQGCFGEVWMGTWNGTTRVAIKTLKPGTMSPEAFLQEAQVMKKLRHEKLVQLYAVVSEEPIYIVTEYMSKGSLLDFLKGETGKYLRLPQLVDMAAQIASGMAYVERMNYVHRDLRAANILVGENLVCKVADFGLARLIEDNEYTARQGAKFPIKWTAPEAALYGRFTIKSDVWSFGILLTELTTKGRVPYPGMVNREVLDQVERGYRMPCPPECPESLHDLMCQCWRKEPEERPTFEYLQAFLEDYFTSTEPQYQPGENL
Protocol: as §2

[5] = system: JAK2 in HEL92 cells (phosphorylation of STAT5); assay: Inhibition of STAT5 phosphorylation in HEL92 cells (western blot); type: cell-based; details: 1 hour, serum-free media
[6] = system: JAK2 (STAT5/pSTAT5 in HEL92 tumor extracts); assay: In vivo pharmacodynamic assay, HEL92 tumor extracts; set-up: species or system mice; details: 55 mg/kg p.o., 2 hours
From the text: Levels of STAT5 and pSTAT5 were quantitated via western blot. Each lane represents an individual sample.

[7] = system: JAK2 in irf-bla TF-1 cells; assay: GeneBLAzer reporter assay in irf-bla TF-1 cells; type: cell-based
Protocol: The effect of Compound A in a cellular system was measured using irf-bla TF-1 cells (JAK2) and Ba/F3 (JAK3) cells. These cells were not tested for the presence of JAK1 and TYK2. IC50 values are reported as the average±standard deviation of at least 4 independent determinations.

[8] = system: phospho-STAT3; assay: CAIA model, paw phospho-STAT3 (Luminex bead assay); type: in vivo, female DBA/1 mice; details: for reduction in paw pSTAT3 compared with Dex: within 24 hours of treatment (day 6-7); for phospho-STAT3 levels in the paw: 55 mg/kg
Protocol: DBA/1 female mice were injected i.v. with purified anti-collagen type II antibodies, then given 25 μg of LPS i.p. three days later to induce arthritis by day 5. Mice that met the arthritis criteria score of 1 per paw were entered into the study. Compound A was provided orally, b.i.d., for all doses tested; Dex was provided at 1.5 mg/kg three times a week, i.p.; and vehicle (PEG400+1% DMSO) was provided orally.
The graphed data was generated using Luminex® bead kits, concentration in units per ml per 3 mg of total protein as determined by the BSA assay. The graphed data represents mean±SEM, statistics were performed using 2-way ANOVA analysis.
To investigate the effect of Compound A on levels of phosphorylated STATs and cytokines in the paws of treated mice, a method was developed whereby synovial fluid and cellular joint extracts could be obtained from the paws and ankles of diseased animals for analysis using multiplex bead arrays [32]. […] Consequently, multiplex analysis was used as the primary method of measuring phosphorylated STATs for all experiments described herein.
Briefly, the front (including carpus) and back (including tarsus) right paws were collected and frozen in dry-ice cooled isopentane and stored at −80° C. until use. The paws were cut to 2 mm×2 mm segments and kept on dry-ice in round bottom polypropylene tubes. Seven hundred microliters tissue extraction buffer containing protease inhibitor cocktail (Calbiochem, San Diego, Calif.) and Halt phosphatase inhibitor cocktail (Thermo Scientific, Rockford, Ill.) or Roche phosphatase inhibitor cocktail (Roche, Indianapolis, Ind.) in tissue extraction reagent I (Invitrogen, Carlesbad, Calif.) were added to each sample. Samples were homogenized frozen using a PT 10-35 Polytron homogenizer. After homogenization, samples were centrifuged at 4° C. for 2000×g for 10 minutes and supernatants re-centrifuged at 4° C. at maximum speed, 14,000×g, for 15 minutes. Supernatants were carefully removed to avoid picking up the top layer of lipids/adipose debris. Protein concentration was measured using a BCA protein assay (Pierce, Rockford, Ill.) and adjusted to 3 mg/ml. A minimum of 25 μl of this extraction was used in the above described protocol using the mouse cytokine 10-plex bead kit (Invitrogen, Carlsbad, Calif.) or phosphorylated STAT1, 3, 5a/b, 3-plex kit (Invitrogen, Carlsbad, Calif.).

[9] = system: serum and paw cytokines; assay: CIA model, serum and paw cytokines (Luminex bead assay); type: in vivo, female DBA/1 mice
Protocol: Female DBA/1 mice were injected with purified collagen type II in CFA i.d. (intradermal), then boosted with collagen type II in IFA, s.c., (subcutaneous) on day 21 followed by a day 28 LPS injection i.p. to induce arthritis (CIA). Mice that scored a ‘1’ or better for each paw were considered arthritic and entered into the study. Treatments started after 7-10 days of arthritis induction. Compound A was provided orally, b.i.d., for all doses tested; Dex was administered i.p. at 1.5 mg/kg, three times a week; and vehicle (PEG400+1% DMSO) was provided orally, b.i.d.
FIGS. 4C-1 through 4C-4: Depict concentrations of various serum cytokines (IL-12, IL-2, IL-10 and TNFα) in arthritic paws in each treatment group.
Frozen plasma at −80° C. was thawed on ice, vortexed, then centrifuged for 10 minutes to remove debris and aggregates. A total of 25-50 μl of serum was used for Luminex® assays following the manufacturer's instruction. Ten different mouse cytokines were measured using the mouse cytokine 10-plex bead kit (Invitrogen, Carlsbad, Calif.). […]
A more detailed description of this method can be found described elsewhere (Lu et al, 2010, submitted for publication). […] Protein concentration was measured using a BCA protein assay (Pierce, Rockford, Ill.) and adjusted to 3 mg/ml. […]

[10] = system: collagen-induced arthritis (CIA); assay: CIA model, joint histopathology; type: in vivo, female DBA/1 mice
Protocol: Tissues were also stained with Safranin-O to detect matrix degeneration and this information was used for scoring. The data in the figure represents mean±SEM, statistics were performed using Prism® software and 2-way ANOVA analysis, *p<0.05, **p<0.01, ***p<0.001. H&E and safranin-O stained paraffin wax embedded carpus and tarsus sections were scored by a board certified, independent pathologist for the criteria described in the materials and methods. Tabulated data represent mean±SD values for the tarsus only. Statistics were performed using 2-way ANOVA analysis, *p<0.05; **p<0.01; ***p<0.001, N=5 mice per group tested. At the end of each experiment, front and hind paws (including carpus and tarsus) were removed from the body of the animal for histological analysis. Skin from the ends of the digits was removed and the metatarsal region skin perforated using surgical scissors to allow full decalcification. Samples followed a decalcification procedure using formic acid as described elsewhere [21, 22]. After 7-10 days of decalcification, samples were washed for 2 hours in distilled water and stored in 70% ethanol at 4° C. until ready to be processed. Samples were paraffin embedded, sectioned and stained with Hematoxylin and Eosin (H&E) stain, also Safranin-O for matrix degradation (images not shown, used by pathologist for scoring). All histology work was performed at the Wistar Institute (Philadelphia, Pa.). […] A total of five mice from each group were analyzed via histopathology, 10× representative images are shown for each group tested.

[11] = CIA model, body mass; type: in vivo, female DBA/1 mice
Protocol: FIGS. 9A and 9B: Depict the effect of treatment on body mass and serum anti-CII autoantibody concentration in a CIA model.
Female DBA/1 mice were injected with purified collagen type II in CFA i.d. (intradermal) then boosted with collagen type II in IFA s.c. (subcutaneous) on day 21 followed by a day 28 LPS injection i.p. (intraperitoneal) to induce arthritis (CIA). Mice that scored a ‘1’ or better for each paw were considered arthritic and entered into the study, treatments started after several days of full arthritis. Compound A was provided orally, b.i.d., for each dose tested; Dex was provided i.p. at 1.5 mg/kg three times a week; vehicle (PEG400+1% DMSO) was provided orally, b.i.d.

T1 sequence (P23458 whole entry): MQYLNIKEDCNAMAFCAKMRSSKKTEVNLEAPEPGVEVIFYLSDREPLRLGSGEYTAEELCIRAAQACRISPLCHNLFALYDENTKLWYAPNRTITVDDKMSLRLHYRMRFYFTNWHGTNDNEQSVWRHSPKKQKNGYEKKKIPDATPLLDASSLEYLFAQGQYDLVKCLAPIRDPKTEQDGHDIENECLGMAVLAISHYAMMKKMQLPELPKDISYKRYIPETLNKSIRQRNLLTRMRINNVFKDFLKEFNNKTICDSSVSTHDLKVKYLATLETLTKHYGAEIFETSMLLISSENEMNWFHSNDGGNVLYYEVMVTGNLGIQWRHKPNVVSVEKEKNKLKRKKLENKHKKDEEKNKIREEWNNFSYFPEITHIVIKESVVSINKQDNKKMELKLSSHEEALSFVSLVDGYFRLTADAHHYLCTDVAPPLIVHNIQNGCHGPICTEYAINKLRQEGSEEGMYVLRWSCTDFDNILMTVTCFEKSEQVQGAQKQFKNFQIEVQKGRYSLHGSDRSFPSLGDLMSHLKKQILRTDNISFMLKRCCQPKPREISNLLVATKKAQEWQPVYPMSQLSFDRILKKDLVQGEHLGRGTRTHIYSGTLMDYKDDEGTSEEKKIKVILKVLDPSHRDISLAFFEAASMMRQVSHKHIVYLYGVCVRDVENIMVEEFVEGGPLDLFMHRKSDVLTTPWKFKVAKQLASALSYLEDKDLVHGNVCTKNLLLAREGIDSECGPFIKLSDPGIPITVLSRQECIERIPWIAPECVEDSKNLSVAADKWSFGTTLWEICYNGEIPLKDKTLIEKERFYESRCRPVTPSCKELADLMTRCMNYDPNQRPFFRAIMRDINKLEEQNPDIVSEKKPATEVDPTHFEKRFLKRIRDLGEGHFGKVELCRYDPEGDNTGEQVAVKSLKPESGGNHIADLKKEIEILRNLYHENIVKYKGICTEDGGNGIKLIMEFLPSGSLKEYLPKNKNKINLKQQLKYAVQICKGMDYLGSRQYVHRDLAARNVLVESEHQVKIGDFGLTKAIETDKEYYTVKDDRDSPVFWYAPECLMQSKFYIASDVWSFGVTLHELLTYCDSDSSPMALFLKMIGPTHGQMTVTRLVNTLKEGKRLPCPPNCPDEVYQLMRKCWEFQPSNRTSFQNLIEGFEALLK

selectivity versus JAK1 [1]: > 40 fold
selectivity against TYK2 [2]: > 800 fold
activity against EGFR in profiling panel [3]: lacked activity
activity against Src in profiling panel [4]: lacked activity
body mass [11]: did not significantly change
SMILES: CN1CCN(c2cccc(Nc3nc4c(-c5ccc(S(C)(=O)=O)cc5)cccn4n3)c2)CC1 [Compound A, [8-(4-Methanesulfonyl-phenyl)-[1,2,4]triazolo[1,5-a]pyridin-2-yl]-[3-(4-methyl-piperazin-1-yl)-phenyl]-amine]
inhibition of JAK2, phosphorylation of STAT5 [5]: shown to inhibit JAK2 in HEL92 cells
inhibition of JAK2 in vivo (pSTAT5/STAT5) [6]: inhibit JAK2 in vivo
inhibition of JAK2, reporter assay [7]: inhibits JAK2 in irf-bla TF-1 cells
reduction in paw pSTAT3 compared with Dex ([8]; 30 mg/kg b.i.d., p<0.01 vs vehicle): significantly greater than that of Dex
reduction in paw pSTAT3 compared with Dex ([8]; 55 mg/kg b.i.d., p<0.001 vs vehicle): significantly greater than that of Dex
phospho-STAT3 levels in the paw ([8]; 2 hours after administration): nearly abolished
phospho-STAT3 levels in the paw ([8]; 6 hours post-administration): only slowly began to recover
paw pSTAT3 expression, remainder of the experiment ([8]; b.i.d. treatment): reduced pSTAT3 expression to the lower limits of the assay
serum and paw cytokines (IL-12, IL-2, IL-10, TNFα, IL-4) and spleen IL-12 ([9]; all three doses): decrease in several serum and paw cytokines
serum IL-12 level ([9]; all three doses (30, 55, 100 mg/kg)): significantly decrease the level of IL-12 comparable to that observed with Dex
histological protection of the tarsus ([10]; 55 mg/kg): provided protection in the tarsus
histopathology scores, significance versus vehicle ([10]; 55 mg/kg, p<0.05): Significance was only observed for the degree of inflammation
histological protection of carpus and tarsus ([10]; 100 mg/kg): provided the best protection for both regions
histological protection of the tarsus ([10]; 100 mg/kg): provided protection in the tarsus
histopathology scores, significance versus vehicle ([10]; 100 mg/kg, p<0.01): Significance was only observed for the degree of inflammation
